Measured values as given in patent publication US20200277571A1, “METHOD FOR AMPLIFYING CONE PHOTORECEPTORS OR ROD PHOTORECEPTORS USING DORSALIZATION SIGNAL TRANSMITTER OR VENTRALIZATION SIGNAL TRANSMITTER” (RIKEN, priority 2017, published 2020).

Test system: S-opsin, M-opsin, L-opsin
Assay: Quantitative PCR of S-opsin, M-opsin, L-opsin after maturation culture in serum-free medium
Type: cell-based, human
Settings: T3 added (0-8 nM) in serum-free DMEM/F12 after about day 190, not less than 30 days
Description: By a method similar to the methods described in Example 1 and Example 3, a cell aggregate containing a retinal tissue in a differentiation stage matured to the level that Muller cell was observed was prepared and culture was performed, in the serum-containing medium used, up to about day 190 to give a retinal tissue in a differentiation stage matured to the level that Muller cell was observed. Thereafter, by a method similar to the methods described in Example 11 and 12, further maturation was performed. That is, 0-1.35 nM BMP4 and 0-8 nM T3 were added to a medium obtained by adding 1% N2 supplement and 100 μM taurine but not adding 10% fetal calf serum to DMEM/F12 medium containing glutamic acid as a component, and culture was performed for not less than 30 days from the start of culture for further maturation. A cell aggregate containing a retinal tissue was recovered, quantitatively PCR was performed according to a conventional method, and the expression levels of S-opsin, M-opsin, L-opsin were confirmed. As a result, irrespective of the presence or absence of BMP4, the expression of S-opsin was promoted when T3 was absent.

Structure (SMILES): N[C@@H](Cc1cc(I)c(Oc2ccc(O)c(I)c2)c(I)c1)C(=O)O [T3, triodo-I-thyronine]
- expression of S-opsin: suppressed
